In patent publication US11382946B2, “Multi-functional peptides and use thereof” (NOVACELL TECHNOLOGY INC., priority 2019, dated 2022):
Non-standard residues stand in square brackets, D forms with d. Residues, ends and D or L forms follow the SMILES beside them. *: point of attachment. 2Nal = N[C@@H](Cc1ccc2ccccc2c1)C(=O)O; Nle = CCCC[C@H](N)C(=O)O; Octanoyl = CCCCCCCC(=O)*

Tests used:
S. aureus = assay type: cell-based, Staphylococcus aureus; settings: 18 h
Protocol: (§1) The present inventors evaluated […] in order to select peptides showing excellent performance among various peptides synthesized in the Example 1. Particularly, in order to measure the antimicrobial activity of the peptide, after preparing Gram-positive bacteria Staphylococcus aureus (S. aureus) and Gram-negative bacteria Pseudomonas aeruginosa (P. aeruginosa), the bacteria were plated on agar plate medium by fourth streaking and cultured overnight in a 36° C. incubator. The next day, the strain colonies produced on the agar plate medium were inoculated into 3 ml nutrient medium and cultured overnight in a stirring incubator at 36° C. and 220 rpm. The next day, the bacteria were diluted to measure absorbance at 600 nm, adjusted to OD600=0.5, and diluted in a 1:100 ratio in nutrient medium. Then, the peptides prepared in the above Examples were serially diluted in concentrations of 0, 1.25, 2.5, 5, 10, and 20 μM in a nutrient medium to prepare 1 ml each, and then inoculated with 1 ml of the diluted bacteria. Subsequently, the mixture was stirred under conditions of 36° C. and 220 rpm, and incubated for 18 hours, and absorbance at 600 nm was measured.
(§2) As a result, 20 peptides showing high antibacterial activity against P. aeruginosa and S. aureus) were selected (FIGS. 2 and 3).

FPR2 = molecular target: T1, FPR2 (Homo sapiens, UniProt P25090); assay: FPR2 activation by intracellular calcium ion increase (Fura-2/AM) in FPR2-RBL cells; assay type: cell-based; settings: RBL cells overexpressing FPR2
T1 construct: expressed in transfected cells; host or cells: RBL cells overexpressing FPR2 (FPR2-RBL)
T1 sequence (P25090 1-351): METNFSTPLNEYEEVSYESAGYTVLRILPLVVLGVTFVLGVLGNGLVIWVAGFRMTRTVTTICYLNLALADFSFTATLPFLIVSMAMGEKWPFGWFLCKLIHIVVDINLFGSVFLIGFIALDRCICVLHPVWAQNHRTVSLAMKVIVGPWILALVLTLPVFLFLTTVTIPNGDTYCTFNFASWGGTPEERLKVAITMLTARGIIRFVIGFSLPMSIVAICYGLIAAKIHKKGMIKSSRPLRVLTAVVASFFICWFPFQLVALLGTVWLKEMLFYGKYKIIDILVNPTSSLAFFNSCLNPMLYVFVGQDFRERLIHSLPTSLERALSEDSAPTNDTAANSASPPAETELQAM
Protocol: The present inventors observed a change in calcium ion permeability of the candidate peptides according to an embodiment of the present invention in order to determine whether they can activate the immunomodulatory function in a body or not. Particularly, intracellular concentration of calcium ions was measured to confirm that the peptide activates FPR2. RBL cells that do neither express FPR1 nor FPR2, RBL cells overexpressed FPR1 (FPR1-RBL) and RBL cells that overexpressed FPR2 (FPR2-RBL) were used and Fura-2/AM which is a fluorophore having high binding affinity to calcium in order to measure intracellular calcium ion level sensitively. For this purpose, cells were cultured in RPMI medium supplemented with 10% fetal bovine serum and harvested by centrifugation in log phase (mid-log phase, 1-3×10^7 cells/ml), and then washed several times with RPMI medium not supplemented with fetal bovine serum, and then the cells were resuspended in RPMI medium to 1×10^7 cells/ml. Subsequently, a final 3 μM concentration of Fura-2/AM was added and the cells were incubated for 45 minutes in a 37° C., 5% CO2 incubator. After the appropriated time, the cells are harvested, washed again with RPMI medium, and then suspended in the appropriate amount of RPMI medium supplemented with 250 μM of sulfinpyrazone, in order to prevent loss of Fura-2 entering the cells. About 2×10^6 cells were taken each time, harvested by rapid centrifugation, and resuspended in 1 ml of a Locke solution without addition of calcium ions and EGTA added, and the ratio of absorbance at two wavelengths of 340 nm and 380 nm on a spectrophotometer were monitored by treating the peptides according to an embodiment of the present invention at different concentrations (1 μM, 0.1 μM, and 0.01 μM) at intervals of about 1 minute, and then the difference in absorbance at two wavelengths was investigated. It was converted to the concentration of free calcium ions into cells according to the method of Grynkiewicz.

P. aeruginosa = assay type: cell-based, Pseudomonas aeruginosa; settings: 18 h
Protocol: as §1, §2

Compound | Antimicrobial activity (IC50, μg/ml) S. aureus (S. aureus) | EC50 (FPR2) | Antimicrobial activity (IC50, μg/ml) P. aeruginosa (P. aeruginosa)
CCCCCCCC(=O)N[C@@H](CCCNC(=N)N)C(=O)N[C@@H](Cc1c[nH]c2ccccc12)C(=O)N[C@@H](CCCNC(=N)N)C(=O)N[C@@H](Cc1c[nH]c2ccccc12)C(=O)N[C@@H](CCCNC(=N)N)C(=O)N[C@@H](Cc1c[nH]c2ccccc12)C(=O)N[C@@H](CCSC)C(=O)N[C@H](C(=O)N[C@H](CCSC)C(N)=O)C(C)C [Peptide V9, Oct-RWRWRWMVm-NH2] (Octanoyl-RWRWRWMV[dM]-NH2) | 12.7 µg/mL | 4.7 nM | 
CSCC[C@@H](NC(=O)[C@H](Cc1c[nH]c2ccccc12)NC(=O)[C@H](Cc1ccc2ccccc2c1)NC(=O)[C@H](Cc1c[nH]c2ccccc12)NC(=O)[C@H](CCCNC(=N)N)NC(=O)[C@H](Cc1c[nH]c2ccccc12)NC(=O)[C@@H](N)CCCNC(=N)N)C(N)=O [Peptide V18_0, RWRWZWm-NH2] (H-RWRW[2Nal]W[dM]-NH2) | 6.8 µg/mL | 10 nM | 21.1 µg/mL
CCCCCCCC(=O)N[C@@H](CCCNC(=N)N)C(=O)N[C@@H](Cc1c[nH]c2ccccc12)C(=O)N[C@@H](CCCNC(=N)N)C(=O)N[C@@H](Cc1c[nH]c2ccccc12)C(=O)N[C@@H](CCCNC(=N)N)C(=O)N[C@@H](Cc1ccc(O)cc1)C(=O)N[C@@H](CCSC)C(=O)N[C@H](C(=O)N[C@H](CCSC)C(N)=O)C(C)C [Peptide V8, Oct-RWRWRYMVm-NH2] (Octanoyl-RWRWRYMV[dM]-NH2) | 13.0 µg/mL | 6.4 nM | 24.4 µg/mL
CCCC[C@H](NC(=O)[C@H](CCCNC(=N)N)NC(=O)[C@H](Cc1c[nH]c2ccccc12)NC(=O)[C@H](Cc1c[nH]c2ccccc12)NC(=O)[C@H](CCCNC(=N)N)NC(=O)[C@H](Cc1ccc2ccccc2c1)NC(C)=O)C(=O)N[C@@H](Cc1c[nH]c2ccccc12)C(=O)N[C@@H](Cc1c[nH]c2ccccc12)C(=O)N[C@@H](CCCNC(=N)N)C(=O)N[C@@H](Cc1c[nH]c2ccccc12)C(=O)N[C@H](CCSC)C(N)=O [Peptide V23_Ac, Ac-ZRWWR-Nle-WWRWm-NH2] (Ac-[2Nal]RWWR[Nle]WWRW[dM]-NH2) | 13.3 µg/mL | 61.3 nM | >50 µg/mL
CCCCCCCC(=O)N[C@@H](CCCCN)C(=O)N[C@@H](Cc1c[nH]c2ccccc12)C(=O)N[C@@H](CCCCN)C(=O)N[C@@H](Cc1c[nH]c2ccccc12)C(=O)N[C@@H](CCCC)C(=O)N[C@@H](Cc1ccc(O)cc1)C(=O)N[C@H](CCSC)C(N)=O [Peptide V4, Oct-KWKW-Nle-Ym-NH2] (Octanoyl-KWKW[Nle]Y[dM]-NH2) | 5.1 µg/mL | 64 nM | 
N=C(N)NCCC[C@H](NC(=O)[C@H](Cc1c[nH]c2ccccc12)NC(=O)[C@@H](N)CCCNC(=N)N)C(=O)N[C@@H](Cc1c[nH]c2ccccc12)C(=O)N[C@@H](Cc1ccc2ccccc2c1)C(=O)N[C@@H](Cc1c[nH]c2ccccc12)C(N)=O [Peptide V16_0, RWRWZW-NH2] (H-RWRW[2Nal]W-NH2) | 30.2 µg/mL |  | 4.3 µg/mL
CCCCCCCC(=O)N[C@@H](CCCCN)C(=O)N[C@@H](Cc1ccccc1)C(=O)N[C@@H](CCCCN)C(=O)N[C@@H](Cc1c[nH]c2ccccc12)C(=O)N[C@@H](CCCNC(=N)N)C(=O)N[C@@H](Cc1ccc(O)cc1)C(=O)N[C@@H](CCSC)C(=O)N[C@H](C(=O)N[C@H](CCSC)C(N)=O)C(C)C [Peptide V6, Oct-KFKWRYMVm-NH2] (Octanoyl-KFKWRYMV[dM]-NH2) | >50 µg/mL | 4.2 nM | 
CCCCCCCC(=O)N[C@@H](CCCCN)C(=O)N[C@@H](Cc1ccccc1)C(=O)N[C@@H](CCCCN)C(=O)N[C@@H](Cc1c[nH]c2ccccc12)C(=O)N[C@@H](CCCC)C(=O)N[C@@H](Cc1ccc(O)cc1)C(=O)N[C@H](CCSC)C(N)=O [Peptide V3, Oct-KFKW-Nle-Ym-NH2] (Octanoyl-KFKW[Nle]Y[dM]-NH2) | 15.2 µg/mL | 107 nM | 
CCCCCCCC(=O)N[C@@H](CCCNC(=N)N)C(=O)N[C@@H](Cc1c[nH]c2ccccc12)C(=O)N[C@@H](CCCNC(=N)N)C(=O)N[C@@H](Cc1c[nH]c2ccccc12)C(=O)N[C@@H](CCCC)C(=O)N[C@@H](Cc1ccc(O)cc1)C(=O)N[C@H](CCSC)C(N)=O [Peptide V5, Oct-RWRW-Nle-Ym-NH2] (Octanoyl-RWRW[Nle]Y[dM]-NH2) | 2.0 µg/mL | 41.5 nM | >50 µg/mL
CCCCCCCC(=O)N[C@@H](CCCNC(=N)N)C(=O)N[C@@H](Cc1c[nH]c2ccccc12)C(=O)N[C@@H](CCCNC(=N)N)C(=O)N[C@@H](Cc1c[nH]c2ccccc12)C(=O)N[C@@H](Cc1ccc2ccccc2c1)C(=O)N[C@@H](Cc1c[nH]c2ccccc12)C(=O)N[C@H](CCSC)C(N)=O [Peptide V18, Oct-RWRWZWm-NH2] (Octanoyl-RWRW[2Nal]W[dM]-NH2) | 2.3 µg/mL | 62.8 nM | 16.2 µg/mL
CSCC[C@@H](NC(=O)[C@@H](NC(=O)[C@H](CCCNC(=N)N)NC(=O)[C@H](Cc1c[nH]c2ccccc12)NC(=O)[C@H](Cc1c[nH]c2ccccc12)NC(=O)[C@H](CCCNC(=N)N)NC(=O)[C@H](Cc1ccc2ccccc2c1)NC(C)=O)C(C)C)C(N)=O [Peptide V21_Ac, Ac-ZRWWRVm-NH2] (Ac-[2Nal]RWWRV[dM]-NH2) | 9.4 µg/mL | 92.3 nM | >50 µg/mL
CSCC[C@@H](NC(=O)[C@H](Cc1c[nH]c2ccccc12)NC(=O)[C@H](CCCNC(=N)N)NC(=O)[C@H](Cc1c[nH]c2ccccc12)NC(=O)[C@H](Cc1c[nH]c2ccccc12)NC(=O)[C@H](CCCNC(=N)N)NC(=O)[C@H](Cc1ccc2ccccc2c1)NC(C)=O)C(N)=O [Peptide V19_Ac, Ac-ZRWWRWm-NH2] (Ac-[2Nal]RWWRW[dM]-NH2) | 5.4 µg/mL | 69.4 nM | >50 µg/mL
CSCC[C@@H](NC(=O)[C@H](Cc1c[nH]c2ccccc12)NC(=O)[C@H](CCCNC(=N)N)NC(=O)[C@H](Cc1c[nH]c2ccccc12)NC(=O)[C@H](Cc1c[nH]c2ccccc12)NC(=O)[C@@H](NC(=O)[C@H](CCCNC(=N)N)NC(=O)[C@H](Cc1c[nH]c2ccccc12)NC(=O)[C@H](Cc1c[nH]c2ccccc12)NC(=O)[C@H](CCCNC(=N)N)NC(=O)[C@H](Cc1ccc2ccccc2c1)NC(C)=O)C(C)C)C(N)=O [Peptide V22_Ac, Ac-ZRWWRVWWRWm-NH2] (Ac-[2Nal]RWWRVWWRW[dM]-NH2) | 13.6 µg/mL | 16.2 nM | >50 µg/mL
CCCCCCCC(=O)N[C@@H](CCCNC(=N)N)C(=O)N[C@@H](Cc1c[nH]c2ccccc12)C(=O)N[C@@H](CCCNC(=N)N)C(=O)N[C@@H](Cc1c[nH]c2ccccc12)C(=O)N[C@@H](Cc1ccc2ccccc2c1)C(=O)N[C@@H](Cc1c[nH]c2ccccc12)C(N)=O [Peptide V16, Oct-RWRWZW-NH2] (Octanoyl-RWRW[2Nal]W-NH2) | 2.7 µg/mL |  | 7.3 µg/mL
